Values quoted from earlier work, collected in patent US7087611B2, “Preparation of an anhydrate form of 5-[2-[4-(1,2-benzisothiazol-3-yl)-1-piperazinyl]ethyl]-6-chloro-1,3-dihydro-2H-indol-2-one hydrochloride (ziprasidone hydrochloride)” (Apotex Pharmachem Inc., priority 2004, dated 2006).
Where a name gives a salt, the structure may show the parent alone.

Assays:
[1] = crystalline monohydrate form; as stated in U.S. Pat. No. 5,312,925
[2] = crystalline monohydrate form; background statement

For `O=C1Cc2cc(CCN3CCN(c4nsc5ccccc45)CC3)c(Cl)cc2N1` [ziprasidone hydrochloride monohydrate], the hygroscopic stability [1] is listed as “substantially hygroscopically stable” and the aqueous solubility [2] is listed as “very low”.
